{"source": "patent US5792742A", "about": "“Fibrin-binding peptide fragments of fibronectin” (New York University, priority 1994, dated 1998)", "key": {"fibrin [1]": {"tested_on": "fibrin", "experiment": "Rebinding of eluted 11 kDa fragment to fibrin column", "type": "binding, bovine", "protocol": "Thus, although 100% of the 11 kDa peptide that was applied to the column could be eluted, only 40-50% of the protein rebound to a second fibrin column at 4° C., and only 20% bound at 37° C.\nThe 11 kDa peptide of fibronectin (or 25.9 kDa peptide) and genetically engineered and expressed proteins of fibronectin type I repeat modules are subjected to fibrin-SEPHAROSE™ chromatography as described above."}, "fibrin [2]": {"tested_on": "fibrin", "experiment": "Competitive inhibition of 125I-11 kDa binding to fibrin-coated wells", "settings": "125I-11 kDa 90 nM", "protocol": "Analysis of the binding data was performed by non linear regression and curve fitting to the one-site competitive binding curves (GraphPad Prism)."}, "fibrin [3]": {"tested_on": "fibrin", "experiment": "Elution of 11 kDa fragment from fibrin-SEPHAROSE with various agents (Table III)", "type": "binding, bovine", "settings": "rotated in the cold overnight", "protocol": "Since complete recovery of fibrin-binding activity was desired for use of the molecule in clinical application, various buffers were tested in an attempt to optimize recovery of the peptide while retaining maximal biological activity."}, "fibrin [4]": {"tested_on": "fibrin", "experiment": "Reversibility (displacement) of 125I-11 kDa FBP binding to fibrin", "settings": "2,000 nM unlabeled peptide (22.2 molar excess)", "protocol": "Detachable microtiter wells previously coated with 15 ng of fibrin were incubated with 100 ng/0.1 ml FBB (90 nM) of ^125 I-11 kDa for 1 hour at 22° C. The unbound radiolabeled protein was removed by extensive washing with FBB containing 0.1% Tween 20. […] The iodinated 11 kDa that remained bound to the removable wells was determined by quantitating the radioactivity attached to the individual wells in a gamma counter. Results were expressed as percentage of control wells incubated with buffer alone."}, "fibrin [5]": {"tested_on": "fibrin", "experiment": "Fibrin-SEPHAROSE affinity chromatography (binding and elution)", "parameters": "species or system bovine", "settings": "temperature change vs denaturing conditions (6M urea or 50% ethylene glycol) for elution", "protocol": "Bovine fibrinogen was cross-linked to CNBr-activated SEPHAROSE™ (5 mg/ml beads) according to the manufacturer's instructions. Coupled fibrinogen was subsequently converted to fibrin by incubation with human thrombin to a final concentration of 5 NIH units/ml and 100 K.I. (kallikrein inhibitory) units/ml of aprotinin (in 0.05M Tris-HCI buffer, pH 7.6, containing 0.1M NaCl and 0.01M EDTA) for three hours, at room temperature (Gold, et al. (1983) Biochemistry 22, 4113-4119).\n1.0M NaCl in 0.05M tris buffer, pH 8.0.\nThe fibrin-binding activity of the proteolytically derived 25.9 kDa fragment of Fn was determined by its ability to bind to a fibrin affinity matrix. […] FBB was used to equilibrate and wash the column. Following warming of the column to 22° C., the column was washed with FBB until absorbance at 280 nm (A280) was less than 0.01, and bound protein eluted with 0.05M Tris-HCl, 0.5M NaCl, 6M urea buffer, pH 7.6.\nThe module (500 μg/1.0 ml) was incubated for 4 hours (while rotating) at 4° C. in the presence of 1.0 ml fibrin-SEPHAROSE™ (5 mg fibrin/ml SEPHAROSE™ beads) equilibrated in […] Tris-HCl, 0.1M NaCl buffer, pH 7.6.\nThe 11 KDa peptide (50 μg/0.206 ml) was radiolabeled using the IODO-BEAD method (Pierce Chemical). The peptide was added to one IODO-BEAD in the presence of 100 μCi ^125 I (17.4 Ci/mg, New England Nuclear) and incubated on ice for 10 minutes. The bead was removed and the free ^125 I removed by chromatography through a PD10 column containing SEPHADEX™ G-25 (Pharmacia). […] The radioiodinated 11 kDa fibrin-binding peptide (500 μg/1.5 ml) was combined with 1 ml of fibrin-SEPHAROSE™ (5 mg fibrin/ml beads) equilibrated with 50 mM Tris-HCl, 0.1M NaCl buffer, pH 7.6, and rotated for 4 hours, at 4° C. The mixture was poured onto a disposable column (0.6 cm×8.0) and the unbound protein washed through. The column was equilibrated to room temperature and washed with the equilibration buffer."}, "fibrin [6]": {"tested_on": "fibrin", "experiment": "Direct binding ELISA on fibrin-coated microtiter plates", "protocol": "The preparation of fibrin coated microtiter plates was adapted from a method described by Christman et al., Biochim. Biophys. Acta. […] Microtiter (Immulon) plates were coated with fibrinogen at a concentration of 50-1000 ng/well/0.1 ml of Tris buffered saline (TBS). The plates were dried for 24 hours at 37° C. and 0.1 ml of thrombin (20 NIH units/100 ml) containing TRASYLOL™ (aprotinin) (400 K.I units/100 ml) in TBS was added to each well and the plates incubated for 2 hours at 37° C. Each well is washed one time with PBS and the plates are blocked for 1.5 hours with 1% BSA in TBS to prevent non-specific binding. A constant concentration of fibronectin and the 11 kDa fibrin-binding polypeptide (500 ng/0.1 ml) in 50 mM Tris-HCl, 0.1M NaCl, pH 7.6 (FBB) were incubated separately with fibrin coated microtiter wells (50-1000 ng) for 1 hr at room temperature (23° C.).\nThe wells were washed three times with FBB containing 0.05% Tween 20 (FBBT) and incubated for 1 hour with 0.05 ml of the a polyclonal anti-fibronectinantiserum (Calbiochem) or the purified IgG fraction of anti-11 kDa rabbit antisera, respectively, at a concentration of 1 μg/ml in FBBT containing 0.1% BSA (FBBT/BSA). Following three washes with FBBT, the wells were incubated with 0.05 ml of alkaline phosphatase labeled goat anti-rabbit IgG (TAGO) at a concentration of 2 μg/ml in FBBT/BSA, for 1 hour. The reaction was developed with 0.05 ml of […] p-nitrophenyl phosphate (Sigma phosphatase substrate tablets) in 10% diethanolamine, pH 9.8 containing 1 mM MgCl2.\n2. […] Binding of ^4 F1.^5 F1 to fibrin coated microtiter plates was examined by ELISA as described above. Microtiter wells were coated with fibrin (50-1000 ng) and blocked, as described earlier, and incubated with the module pair ^4 F1.^5 F1 (500 ng/0.1 ml or 1000 ng/0.1 ml in FBB) for 1 hour, at room temperature.\nFibrin-binding activity was also assessed by an ELISA. Fn was reacted with fibrin-coated microtiter plates and bound Fn was determined by incubation with a polyclonal rabbit anti-Fn antiserum followed by alkaline phosphatase-labeled anti-rabbit Ig."}}, "note": "pIC50: −log10 of the molar value."}
{"substance": "11 kDa FBP: 11 kDa C-terminal proteolytic (subtilisin) fibrin-binding fragment of human plasma fibronectin, residues 2123-2232 of SEQ ID NO:1", "values": [{"measurement": "% Rebound to fibrin", "setting": "fibrin [1]; 4° C., eluted with 1.0M KBr", "value": "7-10%"}, {"measurement": "% Rebound to fibrin", "setting": "fibrin [1]; 4° C., eluted with 2.0M Urea", "value": 60, "unit": "%"}, {"measurement": "% Rebound to fibrin", "setting": "fibrin [1]; 4° C., eluted with 4.0M Urea", "value": "45-52%"}, {"measurement": "% Rebound to fibrin", "setting": "fibrin [1]; 4° C., eluted with 6.0M Urea", "value": "40-50%"}, {"measurement": "% Rebound to fibrin", "setting": "fibrin [1]; 4° C., eluted with 6.0M Urea (step dialysis)", "value": "40-50%"}, {"measurement": "% Rebound to fibrin", "setting": "fibrin [1]; 4° C., eluted with ethylene glycol, listed as 11 kDa FRAGMENT", "value": 80, "unit": "%"}, {"measurement": "% Rebound to fibrin", "setting": "fibrin [1]; 4° C., eluted with ethylene glycol, listed as 11 kDa peptide", "value": 60, "unit": "%"}, {"measurement": "% Rebound to fibrin", "setting": "fibrin [1]; 37° C., eluted with 6.0M urea", "value": 20, "unit": "%"}, {"measurement": "% Rebound to fibrin", "setting": "fibrin [1]; 37° C., eluted with ethylene glycol", "value": 49.5, "unit": "%"}, {"measurement": "concentration at which maximum inhibition was achieved", "setting": "fibrin [2]", "value": 4, "unit": "µM"}, {"measurement": "molar excess at maximum inhibition", "setting": "fibrin [2]", "value": 44.4}, {"measurement": "pIC50", "setting": "fibrin [2]; 15 ng fibrin, 1 hour 22° C., read-out: IC50, 125I-11 kDa binding to fibrin decreased by 50%", "value": 6.22}, {"measurement": "% ELUTED from fibrin-SEPHAROSE", "setting": "fibrin [3]; agent 1.0M Arginine, listed as 11 kDa FIBRIN-BINDING FRAGMENT", "value": 26, "unit": "%"}, {"measurement": "% ELUTED from fibrin-SEPHAROSE", "setting": "fibrin [3]; agent 1.0M Arginine, listed as 11 kDa peptide", "value": 25, "unit": "%"}, {"measurement": "% ELUTED from fibrin-SEPHAROSE", "setting": "fibrin [3]; agent 1.0M KBr", "value": "55-65%"}, {"measurement": "% ELUTED from fibrin-SEPHAROSE", "setting": "fibrin [3]; agent 2.0M Urea", "value": 32, "unit": "%"}, {"measurement": "% ELUTED from fibrin-SEPHAROSE", "setting": "fibrin [3]; agent 4.0M Urea", "value": "50-60%"}, {"measurement": "% ELUTED from fibrin-SEPHAROSE", "setting": "fibrin [3]; agent 6.0M Urea", "value": 100, "unit": "%"}, {"measurement": "% ELUTED from fibrin-SEPHAROSE", "setting": "fibrin [3]; agent 50% ethylene glycol, pH 11.5", "value": 77, "unit": "%"}, {"measurement": "% of bound iodinated 11 kDa reversibly displaced", "setting": "fibrin [4]", "value": 42, "unit": "%"}, {"measurement": "relative affinity for fibrin (from elution conditions)", "setting": "fibrin [5]", "value": "markedly higher"}, {"measurement": "amount bound relative to intact fibronectin on a mole-per-mole basis", "setting": "fibrin [6]", "value": 20, "unit": "times"}, {"measurement": "amount giving maximum binding per 550 ng of fibrin", "setting": "fibrin [6]", "value": "approximately 500 ng"}, {"measurement": "binding to fibrin-coated wells", "setting": "fibrin [6]; ELISA, room temperature, 1 hr", "value": "bound to the fibrin-coated wells in a concentration dependent manner"}]}
